Source: patent publication US20190290623A1, “USE OF TIOTROPIUM BROMIDE TO PREVENT PULMONARY OXYGEN TOXICITY” (priority 2018, published 2019)
Entries after “also recorded” stand apart in the source; their conditions may differ.

How the values were obtained:
Format in all cases: in vivo
[1] = tested on: swine exposed to 2.5 ATA hyperbaric oxygen for 5.5 hr; test: Experiment 2 deep exposure simulation: Impulse Oscillometry (IOS); conditions: 2.5 ATA O2 5.5 hr, post-dive normalized to baseline, n=6/arm
Description: (§1) Experiment 2 is designed to evaluate the efficacy of tiotropium bromide pre-dive with respect to reducing decrements in pulmonary function due to PO2T following a 5.5 hour, 2.5 ATA hyperbaric oxygen exposure. This dive profile was selected because it caused the most significant pulmonary function deficits in humans with minimal risk of seizure due to CNS oxygen toxicity.
(§2) Hyperbaric Exposures: Individual animals were then placed into a Plexiglas box (30 in.×42 in.×38 in., manufactured in-house) within a Multiple Large Animal Chamber (MLAC), which is a steel-hulled hyperbaric chamber (450-cubic ft. floodable volume and pressure tested to 1,230 feet of seawater [fsw] equivalent) (Bethlehem Steel Corp, Bethlehem Pa.). Pressure/depth was monitored by a CPG 2500 Digital Pressure Gauge (Mensor Corp., San Marcos, Tex.). Swine were dove in pairs with each treatment group represented. Swine box assignment was alternated with respect to treatment to avoid any effects associated with individual box environmental features. Animals were monitored via closed-circuit television to observe signs of distress related to middle ear barotrauma (e.g. head shaking, nystagmus) and seizure activity. Oxygen concentration was measured and recorded using a portable O2 analyzer (Teledyne Analytical Inst, City of Industry, Calif.). […]

[2] = tested on: swine exposed to 2.5 ATA hyperbaric oxygen for 5.5 hr; test: Experiment 2: adverse reactions / seizure observation; conditions: 2.5 ATA oxygen exposure
Source text: as §2, with “Calif.). After positioning the animal inside the Plexiglas box, the MLAC was sealed and pressurized using air at the rate of I ATA/minute to a depth of 2.5 ATA. After 2.5 min at a bottom depth equivalent to 2.5 ATA, the breathing gas was switched to 100% O2 and maintained for 5.5 Hrs. After completing 5.5 Hrs on 100% O2, the inspired gas was switched back to air for 3 min. Then, the chamber was decompressed at 1 ATA/minute.” for “Calif.).”

[3] = tested on: swine exposed to 1.5 ATA hyperbaric oxygen for 17.5 hr; test: Experiment 1 shallow exposure simulation: pulmonary capacities; conditions: 1.5 ATA O2 17.5 hr, percent change from baseline
Description: Experiment 1 is designed to evaluate the efficacy of tiotropium bromide administered pre-dive in reducing decrements in pulmonary function due to PO2T following a 17.5 hour, 1.5 ATA hyperbaric oxygen exposure. This dive profile was selected because it was of sufficient duration to elicit persistent pulmonary function decrement in humans.
The swine were anesthetized with propofol (20 cc, I.V. target, adjusted as needed to optimize sedation), intubated and ventilated. Anesthetized swine were shaved, then ECG and EEG electrodes were placed. Animals were then paralyzed with Atracurium Besylate (50 mg, IV) for accurate pulmonary function measurements of quasi-static and dynamic compliance.
Following baseline pulmonary function measurements, the swine were randomized to receive equivalent volumes of normal saline or tiotropium bromide (18 mcg) via nebulizer. The swine were then ventilated until muscle tone was regained. Sedation was discontinued and the swine were extubated, transported to the hyperbaric chamber and allowed to recover until able to independently stand. Once able to stand, animals had electrode leads attached and IV tubing connected to the ear vein catheter. The chamber hatch was then closed and the swine compressed to 1.5 ATA on air.
Next, the swine were switched to 100% oxygen breathing gas and remained at 1.5 ATA for 17.5 hr. At the end of the 17.5 hour 1.5 ATA oxygen exposure, swine surfaced at a rate of 1 ATA/minutes (ATA/min), were transferred to a Panepinto sling, sedated with diazepam (1.5-2.0 mg/kg, I.V) and reassessed via impulse Oscillometry. The swine were again anesthetized with propofol and intubated. When fully sedated, the swine were ventilated, paralyzed with Atracurium Besylate, and post-dive measurements of pulmonary function were recorded. During all phases of study the swine were continuously monitored for signs of seizure or distress.
Baseline and post-dive assessments of pulmonary compliance were conducted on each animal enrolled in the study. […] These values were expressed as percent change from baseline.

[4] = tested on: swine exposed to 2.5 ATA hyperbaric oxygen for 5.5 hr; test: Experiment 2 deep exposure simulation: pulmonary compliance
Description: as §1
Pulmonary function testing: The swine had disposable prewired electrodes adhered to the dermis over the gluteal muscle and a train of four (TOF) stimulation was initiated to confirm proper placement and twitch using a DigiStim III Peripheral Nerve Stimulator (Neuro Technology Inc., Kerrville, Tex.). Atracurium besylate (50 mg, IV) (hospira, Lake Forest, Ill.) was injected into the ear vein catheter, and the swine was observed until cessation of muscle twitch with TOFs. The swine was then disconnected from the ventilator circuit, allowed to passively exhale, and connected to an O2 filled 3 L super syringe (Hamilton Company, Reno, Nev.) attached to a pressure gauge (OMEGA®, Norwalk, Conn.), and pneumotachometer (Harvard Apparatus, Holliston, Mass.). Oxygen was introduced in 100 ml increments every 3 seconds until a static pressure of 40 cm H2O was reached. The lungs were then deflated in 100 ml increments until a static pressure of −40 cm H2O. The swine was then reconnected to the ventilator and ventilated for 2 minutes before repeating the insufflation and exhalation maneuvers and measurements one more time. […] After the above measurements, swine received either nebulized Tiotropium (18 μg dissolved in saline) or an equal volume of 0.9% saline through the breathing circuit over the course of 15 minutes. The propofol infusion was then stopped, the animals were then monitored until a swallow reflex was observed then extubated. The swine were then transported to the hyperbaric chamber suite and allowed to recover until capable of standing.
as §2, with “Calif.). After positioning the animal inside the Plexiglas box, the MLAC was sealed and pressurized using air at the rate of I ATA/minute to a depth of 2.5 ATA. After 2.5 min at a bottom depth equivalent to 2.5 ATA, the breathing gas was switched to 100% O2 and maintained for 5.5 Hrs. After completing 5.5 Hrs on 100% O2, the inspired gas was switched back to air for 3 min. Then, the chamber was decompressed at 1 ATA/minute. Upon reaching surface the animal was transported to the surgical suite for post-dive ECG and pulmonary function measurements (identical to the pre-dive procedures).” for “Calif.).”

C[N+]1(C)[C@@H]2C[C@@H](OC(=O)C(O)(c3cccs3)c3cccs3)C[C@H]1[C@@H]1O[C@@H]12 [Tiotropium, tiotropium bromide]
IOS resistance in saline treated controls when compared to Tiotropium treated swine ([1]; all frequencies, p=0.0421): significant decrease in resistance
IOS reactance in saline treated controls when compared to Tiotropium treated swine ([1]; p=0.0587): decrease in reactance which approached significance; also recorded: decrease in reactance, which approached significance
adverse reactions (including seizure) [2]: no adverse reactions
Vital Capacity, Saline vs Tiotropium ([3]; p=0.394): no significant differences
Expiratory Reserve Volume, Saline vs Tiotropium ([3]; p=0.445): no significant differences
Inspiratory capacity, Saline vs Tiotropium ([3]; p=0.879): no significant differences
pulmonary compliance, inspiratory arm, post-exposure vs baseline ([4]; 2.5 ATA O2 5.5 hr, 1st set of measurements, n=7, p=0.1999): no significant difference
expiratory compliance, post-exposure vs baseline ([4]; 2.5 ATA O2 5.5 hr, 1st set of measurements, n=7, p=0.5711): did not exhibit any decrement
pulmonary compliance, expiratory arm, post-exposure vs baseline ([4]; 2.5 ATA O2 5.5 hr, 2nd set of measurements, n=9, p=0.0438): significant decrement
pulmonary compliance, inspiratory arm, post-exposure vs baseline ([4]; 2.5 ATA O2 5.5 hr, 2nd set of measurements, n=9, p=0.7388): no significant change
pulmonary compliance after hyperbaric oxygen exposure ([4]; 2.5 ATA for 5.5 hrs, 18 μg inhaled, nebulized, prophylactic, p=0.9094): no decrement in pulmonary compliance; also recorded: no change
